Experimental data taken from patent US6254883A, “Composition for transdermal delivery of drugs” (Novagent Oy, priority 1996, dated 2001).
“Also recorded” adds a separate entry of the source.

Tests used:
[1] = Tacrine permeation across human skin in vitro, Side-by-Side diffusion chambers (Example 3); format: in vitro ADME
[2] = buffered solution pH=7; 30 mg tacrine per gram of fiber
Description: An acidic fiber ion exchanger was treated with this solution, wherein the following reaction occurred:
wherein R is the back bone of the fiber ion exchanger (polypropylene).
The ion exchange performance of this fiber ion-exchanger was tested in a Franz diffusion cell (see FIG. 1) to
a buffered solution (pH=7), and t

[3] = cited from earlier work
[4] = Delivery of tacrine from acidic fiber ion exchanger to blood through skin, Franz diffusion cell (Example 2); format: in vitro ADME; conditions: 30 mg tacrine per gram of fiber
[5] = Tacrine (-HCl), cited from earlier work
[6] = phosphate buffer 6 mM, pH 7,4
Description: The cationic fiber discs were washed in 5% HCl solution in a dropfunnel until all sodium was exchanged.
Drug release from the fiber discs was tested in vitro in Franz diffusion cells (Crown Glass Co., Somerville, N.J.) at 37 C. The fiber discs were placed in the diffusion cells so that one side of the cationic ion-exchange fiber was exposed to the dissolution medium (phosphate-buffer6 mM, pH 7,4). Surface area of the fiber discs exposed to the buffer was 0,64 cm^2. […] The column used was Supelcosil LC-18-DB (5 m, 150 mm×4,6 mm), and the mobile phase included 22% of acetonitrile, 1% of triethylamine, and 77% of phosphate buffer at pH 6,5. Detection wavelength was 240 nm and flow rate was 1,0 ml per min.

[7] = pH 7.0 phosphate buffer (200 mM) containing 6.27 g/l NaCl; donor 50 μg/ml; cited from earlier work
[8] = In vitro release of salicylate from anionic ion-exchange fiber through skin (epidermis) in Franz diffusion cells (experiment 3); format: in vitro ADME
Description: (§1) In the experiments below a woven cloth was used comprising a cotton textile fiber (RAIEX AK II) in which […] amine groups (-N^+ (CH3)3) had been grafted to the polysaccaride molecules. The surface weight of the cloth was 200 g/m^2. The thickness of the fiber was 30-40 μm, strength 10-20 kg s/mm^2, break stretch 15-40% and the ion exchanger capacity 3.3 mekv/g.
(§2) For release studies circular discs (diameter 25 mm) were cut from the above mentioned anionic ion-exchange fiber cloth. The fiber discs were washed by 5% NaHCO3 solution in a dropfunnel until all chloride was exchanged (tested by silver nitrate in HNO3 solution). […] The discs containing salicylate were dried in 37° C.
(§3) Drug release in vitro from the fiber discs at 37° C. was tested in Franz diffusion cells (Crown Glass Co. Inc., Somerville, N.J.) (FIG. 1). In the figure reference number 11 denotes the donor compartment, 14 receiver compartment, 15 thermostat, 16 stirring rod and 12 sample tube. […] The dissolution medium was pH 7.4 phosphate buffer saline (PBS, 143 mM, μ=0.15 (μ=ionic strength)) in experiment 1 and pH 7.4 phosphate buffer (6 mM, […]) in experiments 2 and 3. To assess the effect of the skin on drug release (experiment 3), a piece of epidermis 13 was placed between the fiber disc and buffer solution. At fixed times, samples of 250 μl were withdrawn and the drug concentration in the samples were determined by using HPLC (Beckman System Gold, Beckman Instrument, San Ramon, Calif.) with a Supelcosil LC-18-DB column (5 μm, 150×4.6 mm) (Supelco Inc., Rohm and Haab Co., Bellefonte, Pa.). The mobile phase was a binary mixture of methanol (40% v/v) and pH 7.0 phosphate buffer (60%). The detection wavelenght was 298 nm, and the flow rate of 1.0 ml/min, the retention time was 2.6 min.

[9] = In vitro release of salicylate from anionic ion-exchange fiber discs in Franz diffusion cells, 37° C. (experiments 1 and 2)
Description: as §1, §2, §3

For Nc1c2c(nc3ccccc13)CCCC2 [tacrine, 9-amino-1,2,3,4-tetrahydroacridine], the “steady-state flux of tacrine across human skin” value ([1]; 5% solution, pH 7,4, in vitro) was 2,95 g/h per cm^2, the “duration of constant drug delivery from the fiber across skin” value ([1]; cationic ion-exchange fiber) was 120 h and the “delivery of tacrine across the skin from the cationic ion-exchange fiber” value ([1]; cationic ion-exchange fiber with 3,5% tacrine in HEPES-buffer) was “about 0,003 g/h per cm^2”. The lag-time of permeation ([1]; tacrine solution, human skin, pH 7,4) was “ca. 24 h”, the “amount of tacrine delivered to buffered solution (in words)” value [2] was “pharmacologically significant amounts” and the “side-effects above clinical concentration (in words)” value ([3]; above about 5-30 ng/ml, oral) was “unwanted side-effects are more likely to take place”. For the same compound, the “elimination half-life T1/2” value ([3]; human, in vivo) was 1,4-3,6 h, the “first-pass metabolism (in words)” value ([3]; in vivo) was “extensive first-pass metabolism” and the peroral bioavailability ([3]; peroral) was 5-35%. For the same compound, the “amount of tacrine delivered to blood through skin (in words)” value [4] was “pharmacologically significant amounts”, the “solubility in water (in words)” value [5] was “soluble in water” and the “charge at physiological pH (in words)” value ([5]; physiological pH, assumed) was “assumed to carry a positive charge”. The “tacrine release rate from the cationic ion-exchange fiber” value ([6]; during the first 10 hours) was “about 375 g/h per cm^2”, the “duration of initial burst of tacrine release” value ([6]; 37 C.) was 6 to 12 h and the “tacrine released from the fiber after initial burst” value ([6]; after initial burst of about 6-12 h) was 50%.
In the case of O=C([O-])c1ccccc1O.[Na+] [Sodium salicylate, sodium salicylate], the “in vitro permeability through skin” value [7] is given as “about 0.34 μg/cm^2 /h”, the “release kinetics through skin (in words)” value ([8]; after initial lag time) is given as “followed zero-order kinetic after initial lag time” and the “burst effect with skin (in words)” value ([8]; with skin) is given as “the burst effect disappeared”. For the same compound, the “lag time before steady state release” value ([8]; with skin) was “about 2 h”, the “duration of nearly constant / controlled release (in words)” value ([9]; anionic ion-exchange fiber, in vitro) was “two days; also recorded: several days” and the “duration of initial burst” value ([9]; experiment 1, PBS 143 mM) was less than 6 h. For the same compound, the “release rate after initial burst (nearly constant)” value ([9]; experiment 1, PBS 143 mM, pH 7.4, after initial burst) was 20-30 μg/h/cm^2, the “release rate in the beginning of the experiment (burst)” value ([9]; experiment 1, PBS 143 mM, pH 7.4, initial burst) was “about 350 μg/h/cm^2” and the “duration of constant release phase” value ([9]; experiment 2, phosphate buffer 6 mM, μ=0.20) was “about 50 h”. The “rate of salicylate release during the constant release phase” value ([9]; experiment 2, phosphate buffer 6 mM, μ=0.20, pH 7.4) was “about 60 μg/h/cm^2” and the “release rate and released amount, phosphate buffer vs PBS (in words)” value ([9]; phosphate buffer (6 mM, μ=0.20) compared with PBS (143 mM, μ=0.15)) was “higher in phosphate buffer (6 mM, μ=0.20) than in PBS solution (143 mM, μ=0.15)”.
